Laboratory results taken from patent US20240051931A1, “HDAC INHIBITORS” (University of Pittsburgh - Of the Commonwealth System of …, priority 2020, published 2024).

How the values were obtained:
PanHDAC = PanHDAC activity at fixed concentration (Table 2); format: biochemical; set-up: unit not given here; details: compound at 1 uM
HDAC 6 = biological target: T1, HDAC 6 (Homo sapiens, UniProt Q9UBN7); assay: HDAC 6 activity at fixed concentration (Table 2); format: biochemical; set-up: unit not given here; details: compound at 50 nM
T1 sequence (Q9UBN7 1-1215): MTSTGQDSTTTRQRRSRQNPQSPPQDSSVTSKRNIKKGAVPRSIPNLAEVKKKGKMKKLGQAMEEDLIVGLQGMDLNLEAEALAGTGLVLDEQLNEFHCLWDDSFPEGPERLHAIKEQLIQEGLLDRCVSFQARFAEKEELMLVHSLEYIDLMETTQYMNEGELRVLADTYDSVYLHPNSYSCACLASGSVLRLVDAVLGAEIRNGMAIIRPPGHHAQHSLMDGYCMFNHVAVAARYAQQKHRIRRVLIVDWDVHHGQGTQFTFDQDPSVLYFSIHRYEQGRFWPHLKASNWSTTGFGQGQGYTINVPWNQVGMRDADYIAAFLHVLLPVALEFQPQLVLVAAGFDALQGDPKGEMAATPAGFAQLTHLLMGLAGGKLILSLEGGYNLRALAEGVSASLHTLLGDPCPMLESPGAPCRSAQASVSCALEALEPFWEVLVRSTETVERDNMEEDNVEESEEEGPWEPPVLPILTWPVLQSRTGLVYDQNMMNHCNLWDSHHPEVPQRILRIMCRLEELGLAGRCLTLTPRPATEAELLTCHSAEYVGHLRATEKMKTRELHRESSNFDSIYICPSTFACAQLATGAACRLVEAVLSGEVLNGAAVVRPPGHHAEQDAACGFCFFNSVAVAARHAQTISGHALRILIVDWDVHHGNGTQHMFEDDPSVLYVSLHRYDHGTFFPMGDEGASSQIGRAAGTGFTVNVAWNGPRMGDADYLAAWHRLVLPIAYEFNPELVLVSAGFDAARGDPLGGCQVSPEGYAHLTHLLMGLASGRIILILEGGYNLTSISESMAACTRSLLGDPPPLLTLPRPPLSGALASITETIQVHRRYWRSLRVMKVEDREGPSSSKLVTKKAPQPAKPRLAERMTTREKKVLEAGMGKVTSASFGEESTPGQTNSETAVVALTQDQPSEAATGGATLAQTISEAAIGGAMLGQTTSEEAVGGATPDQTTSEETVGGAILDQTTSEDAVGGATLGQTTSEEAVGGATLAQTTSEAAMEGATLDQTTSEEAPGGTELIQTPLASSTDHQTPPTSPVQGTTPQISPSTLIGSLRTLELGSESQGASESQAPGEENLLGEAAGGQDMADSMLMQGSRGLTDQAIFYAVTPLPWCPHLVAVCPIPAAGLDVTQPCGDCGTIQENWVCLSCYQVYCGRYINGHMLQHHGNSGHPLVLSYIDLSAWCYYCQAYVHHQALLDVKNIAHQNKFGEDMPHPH

Compound: Cl.O=C(CN1CCC2(CCc3cc(F)ccc3O2)CC1)NO
- melting point: 200 to 203 °C

Compound: O=C(Nc1cccc2c1OC(C(=O)NO)CC2)OCc1ccccc1Cl (racemic) [Compound 11L, 2-Chlorobenzyl (2-(hydroxycarbamoyl)chroman-8-yl)carbamate]
- melting point: 182 to 188 °C

Compound: C[C@@H]1Cc2ccccc2O[C@@H]1C(=O)NO (relative stereo) [Compound 73, (rel)-(2S,3R)—N-Hydroxy-3-methylchromane-2-carboxamide]
- melting point: 156 to 160 °C

Compound: CO[C@@H]1C[C@@H](C(=O)NO)Oc2ccccc21 (relative stereo) [Compound 85, (rel)-(2S,4R)—N-Hydroxy-4-methoxychromane-2-carboxamide]
- melting point: 102 to 104 °C

Compound: O=C(NO)[C@@H]1CCc2ccc(-c3ccc(F)c(Cl)c3)cc2O1 [(S)-58d, (S)-7-(3-Chloro-4-fluorophenyl)-N-hydroxychromane-2-carboxamide]
- melting point: 173 to 174 °C

Compound: O=C(NO)[C@@H]1CCc2ccc(-c3ccc(Cl)c(Cl)c3)cc2O1 [(S)-58e, (S)-7-(3,4-Dichlorophenyl)-N-hydroxychromane-2-carboxamide]
- melting point: 134 to 136 °C

Compound: O=C(Nc1cccc2c1O[C@@H](C(=O)NO)CC2)OCc1ccccc1Cl [+11L, 2-Chlorobenzyl (R)-(2-(hydroxycarbamoyl)chroman-8-yl)carbamate]
- melting point: 173 to 175 °C

Compound: Cc1ccc(COc2ccc3c(c2)OC(C(=O)NO)CC3)cc1 (stereo not shown) [Compound 1-44]
- PanHDAC at 1 uM (PanHDAC): 0
- HDAC 6 at 50 nM (HDAC 6): 29

Compound: O=C(COc1ccc(Cl)c(Cl)c1)Nc1cccc2c1OC(C(=O)NO)CC2 (stereo not shown) [Compound 1-45]
- PanHDAC at 1 uM (PanHDAC): 0
- HDAC 6 at 50 nM (HDAC 6): 0

Compound: O=C(Nc1ccc(F)cc1)Nc1ccc2c(c1)CCC(C(=O)NO)O2 (stereo not shown) [Compound 1-46]
- PanHDAC at 1 uM (PanHDAC): 0
- HDAC 6 at 50 nM (HDAC 6): 48

Compound: COc1ccccc1COc1ccc2c(c1)OC(C(=O)NO)CC2 (stereo not shown) [Compound 1-47]
- PanHDAC at 1 uM (PanHDAC): 0
- HDAC 6 at 50 nM (HDAC 6): 53

Compound: O=C(NO)C1CCc2ccc(OCc3ccc(F)cc3)cc2O1 (stereo not shown) [Compound 1-48]
- PanHDAC at 1 uM (PanHDAC): 0
- HDAC 6 at 50 nM (HDAC 6): 0

Compound: O=C(NO)C1CCc2ccc(OCCc3ccccc3)cc2O1 (stereo not shown) [Compound 1-49]
- PanHDAC at 1 uM (PanHDAC): 0
- HDAC 6 at 50 nM (HDAC 6): 0

Compound: O=C(NO)C1CCc2ccc(OCc3ccc(Cl)cc3)cc2O1 (stereo not shown) [Compound 1-50]
- PanHDAC at 1 uM (PanHDAC): 0
- HDAC 6 at 50 nM (HDAC 6): 48

Compound: O=C(NO)C1CCc2cc(NS(=O)(=O)c3cccc4ccccc34)ccc2O1 (stereo not shown) [Compound 1-51]
- PanHDAC at 1 uM (PanHDAC): 8
- HDAC 6 at 50 nM (HDAC 6): 64

Compound: COc1ccc(CNC(=O)Nc2ccc3c(c2)CCC(C(=O)NO)O3)cc1 (stereo not shown) [Compound 1-52]
- PanHDAC at 1 uM (PanHDAC): 0
- HDAC 6 at 50 nM (HDAC 6): 0

Compound: O=C(COc1ccccc1Cl)Nc1cccc2c1O[C@H](C(=O)NO)CC2 [Compound 1-53]
- PanHDAC at 1 uM (PanHDAC): 0
- HDAC 6 at 50 nM (HDAC 6): 25

Compound: O=C(NO)C1CCc2ccc(-c3ccc(Cl)c(Cl)c3)cc2O1 (stereo not shown) [Compound 1-54]
- PanHDAC at 1 uM (PanHDAC): 0
- HDAC 6 at 50 nM (HDAC 6): 39

Compound: Cn1ccc2cc(-c3ccc4c(c3)OC(C(=O)NO)CC4)ccc21 (stereo not shown) [Compound 1-55]
- PanHDAC at 1 uM (PanHDAC): 0
- HDAC 6 at 50 nM (HDAC 6): 44

Compound: COc1ccc(-c2ccc3c(c2)OC(C(=O)NO)CC3)cc1 (stereo not shown) [Compound 1-56]
- PanHDAC at 1 uM (PanHDAC): 0
- HDAC 6 at 50 nM (HDAC 6): 13

Compound: O=C(Nc1ccc2c(c1)CC[C@@H](C(=O)NO)O2)c1ccc(-c2ccccc2)cc1 [Compound 1-57]
- PanHDAC at 1 uM (PanHDAC): 0
- HDAC 6 at 50 nM (HDAC 6): 7

Compound: O=C(NO)[C@H]1CCc2ccc(OCc3ccc(Cl)cc3)cc2O1 [Compound 1-58]
- PanHDAC at 1 uM (PanHDAC): 0
- HDAC 6 at 50 nM (HDAC 6): 31

Compound: O=C(NO)[C@@H]1CCc2ccc(OCc3ccc(Cl)cc3)cc2O1 [Compound 1-59]
- PanHDAC at 1 uM (PanHDAC): 0
- HDAC 6 at 50 nM (HDAC 6): 0

Compound: COc1cccc(COC(=O)Nc2cccc3c2O[C@H](C(=O)NO)CC3)c1 [Compound 1-60]
- PanHDAC at 1 uM (PanHDAC): 0
- HDAC 6 at 50 nM (HDAC 6): 33

Compound: O=C(NO)[C@@H]1CCc2ccc(-c3ccc(Cl)c(Cl)c3)cc2O1 [Compound 1-61]
- PanHDAC at 1 uM (PanHDAC): 0
- HDAC 6 at 50 nM (HDAC 6): 41

Compound: O=C(Nc1cccc2c1O[C@H](C(=O)NO)CC2)OCc1ccc(Cl)cc1 [Compound 1-62]
- PanHDAC at 1 uM (PanHDAC): 0
- HDAC 6 at 50 nM (HDAC 6): 32

Compound: O=C(Nc1cccc2c1O[C@H](C(=O)NO)CC2)OCc1ccc(Cl)c(Cl)c1 [Compound 1-63]
- PanHDAC at 1 uM (PanHDAC): 0
- HDAC 6 at 50 nM (HDAC 6): 45

Compound: O=C(NO)[C@@H]1CCc2ccc(-c3ccc(F)c(Cl)c3)cc2O1 [Compound 1-64]
- PanHDAC at 1 uM (PanHDAC): 3
- HDAC 6 at 50 nM (HDAC 6): 47

Compound: O=C(NO)[C@@H]1CCc2ccc(OCc3ccccc3Cl)cc2O1 [Compound 1-65]
- PanHDAC at 1 uM (PanHDAC): 0
- HDAC 6 at 50 nM (HDAC 6): 17

Compound: COc1ccccc1COC(=O)Nc1cccc2c1O[C@H](C(=O)NO)CC2 [Compound 1-66]
- PanHDAC at 1 uM (PanHDAC): 0
- HDAC 6 at 50 nM (HDAC 6): 31

Compound: O=C(Nc1ccc(F)cc1)Nc1cccc2c1OC(C(=O)NO)CC2 (stereo not shown) [Compound 11c, 8-(3-(4-Fluorophenyl)ureido)-N-hydroxychromane-2-carboxamide]
- melting point: 231 to 232 °C

Compound: O=C(NCc1ccccc1)Nc1cccc2c1OC(C(=O)NO)CC2 (stereo not shown) [Compound 11e, 8-(3-Benzylureido)-N-hydroxychromane-2-carboxamide]
- melting point: 187 to 190 °C

Compound: O=C(Nc1cccc2c1OC(C(=O)NO)CC2)OCc1ccc(C(F)(F)F)cc1 (stereo not shown) [Compound 11f, 4-(Trifluoromethyl)benzyl (2-(hydroxycarbamoyl)chroman-8-yl)carbamate]
- melting point: 102 to 104 °C

Compound: COc1cccc(COC(=O)Nc2cccc3c2O[C@H](C(=O)NO)CC3)c1 [Compound 11g, 3-methoxybenzyl (S)-(2-(hydroxycarbamoyl)chroman-8-yl)carbamate]
- melting point: 71 to 73 °C

Compound: O=C(Nc1cccc2c1O[C@H](C(=O)NO)CC2)OCc1ccc(Cl)cc1 [Compound 11h, 4-Chlorobenzyl (S)-(2-(hydroxycarbamoyl)chroman-8-yl)carbamate]
- melting point: 155 to 157 °C

Compound: O=C(NO)C1CCc2cccc(NS(=O)(=O)c3ccc(F)cc3)c2O1 (stereo not shown) [Compound 11m, 8-((4-Fluorophenyl)sulfonamido)-N-hydroxychromane-2-carboxamide]
- melting point: 237 to 239 °C

Compound: O=C(NO)C1CCc2cccc(NS(=O)(=O)c3cccc4ccccc34)c2O1 (stereo not shown) [Compound 11n, N-Hydroxy-8-(naphthalene-1-sulfonamido)chromane-2-carboxamide]
- melting point: 219 to 221 °C

Compound: CS(=O)(=O)Nc1cccc2c1OC(C(=O)NO)CC2 (stereo not shown) [Compound 11o, N-Hydroxy-8-(methylsulfonamido)chromane-2-carboxamide]
- melting point: 181 to 183 °C

Compound: Cc1ccc(S(=O)(=O)Nc2cccc3c2OC(C(=O)NO)CC3)cc1 (stereo not shown) [Compound 11p, N-Hydroxy-8-((4-methylphenyl)sulfonamido)chromane-2-carboxamide]
- melting point: 235 to 237 °C

Compound: O=C(Nc1ccc2c(c1)CCC(C(=O)NO)O2)c1ccc(S(F)(F)(F)(F)F)cc1 (stereo not shown) [Compound 14c, N-Hydroxy-6-(4-(pentafluoro-λ^6-sulfaneyl)benzamido)chromane-2-carboxamide]
- melting point: 214 to 216 °C

Compound: O=C(NCc1ccc(Cl)c(C(F)(F)F)c1)Nc1cccc2c1OC(C(=O)NO)CC2 (stereo not shown) [Compound 14i, 8-(3-(4-Chloro-3-(trifluoromethyl)benzyl)ureido)-N-hydroxychromane-2-carboxamide]
- melting point: 195 to 197 °C
